Measured values from US20100104518A1, “CHEWING GUM, CONFECTION, AND OTHER ORAL DELIVERY VEHICLES CONTAINING A TRADITIONAL CHINESE MEDICINE OR EXTRACT THEREOF” (priority 2006, published 2010).

Columns and labels:
Type in all cases: cell-based
P. gingivalis [1] = experiment: Minimum Inhibitive Concentration test (MIC) of TCM extracts on oral bacteria; conditions: ethanol TCM extract; Schaedler broth, two-fold dilutions, 24 hrs at 37° C.
Method: (§1) To evaluate the germ-kill efficacy, the dried crude TCM bark, stem, leaf or root was ground to powder. 10-50 grams of TCM powder was mixed with 100 ml of ethanol. The mixture was super-sonicated for 10-15 minutes to extract the TCM actives. The mixture was further transferred into a Mixxor solid-liquid phase extractor for extracting about 50 strokes. The solution was filtered by a 0.45 um Millipore filter. For determination of the TCM extract concentration, slight amount of TCM extract sample was accurately weighed on a pre-weighed aluminum weighing dish. It was dried in a 45° C. oven for 2 hours to evaporate ethanol. The sample dish was weighed again, and the concentration of TCM extract was determined as: conc.=(Dry weight−dish weight)/(wet weight−dish weight)×100%.
(§2) The germ-kill efficacy was determined by a Minimum Inhibitive Concentration test (MIC) and a Minimum Bactericidal Concentration (MBC) test. […] The solution was then serially diluted two-fold so that each subsequent dilution contained 50% of the compound concentration of the previous dilution while maintaining a constant level of nutrients for each dilution. These dilutions were inoculated with representative oral microorganisms, and incubated for 24 hrs at 37° C. For each TCM compound, the lowest dilution that was not turbid was registered as the MIC. The MBC was determined by transferring […] of liquid from no-turbid tubes to fresh growth media and incubated for 48 hrs. […] Table A & B list the MIC and MBC data on P. gingivalis, F. nucleatum and S. nutans.

F. nucleatum [2] = experiment: as above; conditions: ethanol TCM extract; Schaedler broth, two-fold dilutions, 24 hrs at 37° C.
Method: as §1, §2

S. mutans [3] = experiment: as above; conditions: ethanol TCM extract; Schaedler broth, two-fold dilutions, 24 hrs at 37° C.
Method: as §1, §2

P. gingivalis [4] = experiment: Minimum Bactericidal Concentration (MBC) test of TCM extracts on oral bacteria; conditions: transfer from non-turbid tubes to fresh growth media, 48 hrs
Method: as §1, §2

F. nucleatum [5] = experiment: as above; conditions: transfer from non-turbid tubes to fresh growth media, 48 hrs
Method: as §1, §2

S. mutans [6] = experiment: as above; conditions: transfer from non-turbid tubes to fresh growth media, 48 hrs
Method: as §1, §2

MIC P. gingivalis (P. gingivalis [1]): 2.5 ng/mL | MIC F. nucleatum (F. nucleatum [2]): 5 ng/mL | MIC S. mutans (S. mutans [3]): 5 ng/mL
Compound: N=C(NCCCCCCNC(=N)NC(=N)Nc1ccc(Cl)cc1)NC(=N)Nc1ccc(Cl)cc1.O=C(O)[C@H](O)[C@@H](O)[C@H](O)[C@H](O)CO.O=C(O)[C@H](O)[C@@H](O)[C@H](O)[C@H](O)CO [Chlorohexdine Gluconate]
MBC P. gingivalis (P. gingivalis [4]): 5 ng/mL | MBC F. nucleatum (F. nucleatum [5]): 10 ng/mL | MBC S. mutans (S. mutans [6]): 10 ng/mL
